Reference: article PMC9599717, “The Multicellular Effects of VDAC1 N-Terminal-Derived Peptide” (Biomolecules, 2022)

Experiments:
[1] = test system: vinculin in U-87MG cells; assay: Vinculin immunofluorescence staining intensity; assay type: cell-based, human
Method: Cells were seeded on sterile glass coverslips in 12-well plates and cultured until reaching about 80% confluence. Cells were treated with D-Δ(1-18)N-Ter-Antp peptide in serum-free DMEM for 24 h. Then cells were washed with PBS, fixed in 4% paraformaldehyde for 20 min, washed three times with PBS, permeabilized with 0.3% Triton X-100 in PBS, and blocked, in blocking buffer (10% Normal goat serum, 1% fatty acid-free bovine serum albumin [BSA], 0.1% TritonX100 diluted in PBS) for 2 h. Cells were incubated overnight at 4 ℃ with the appropriate primary antibodies (Table S1), followed by three washes with PBS. […]
Quantitation of protein levels, as reflected in the staining intensity, was analyzed in the whole area of the sections using Image J software.
Figure 2 D-Δ(1-18)N-Ter-Antp-induced changes in cell morphology and cell membrane permeability. (A,B) U-87MG cells were treated with the indicated concentrations of D-Δ(1-18)N-Ter-Antp peptide for 16 h, and cell morphology was monitored by light microscope (A). Quantification of cell size (B). (C,D) U-87MG cells were untreated or treated with 10 μM of D-Δ(1-18)N-Ter-Antp peptide or N-TerΔ(21-26)-Antp for 24 h, and cell morphology was monitored by light microscope (C). Quantification of cell size (D). […] Quantification of vinculin staining intensity (F). […]

[2] = test system: U-87MG cells; assay: Immunoblotting of protein expression in peptide-treated cells; assay type: cell-based, human; conditions: 12 h
Method: U-87 MG cells were treated with the indicated concentrations of D-Δ(1-18)N-Ter-Antp peptide in serum-free DMEM for 6 h. Then cells were lysed in lysis buffer (100 mM Tris/HCl pH 8.0, 5% sodium dodecyl sulfate [SDS]), supplemented with a protease inhibitor cocktail (Calbiochem, San Diego, CA, USA). The lysates were vortexed and heated at 70 °C for 10 min. Finally, cell lysates were centrifuged (15,000× g, 10 min at 4 °C), and the protein concentration of the supernatant was determined according to the Lowry assay with a slight modification. Protein samples were stored at −80 °C until subsequent gel electrophoresis. Protein samples (20 μg) were resolved by SDS-polyacrylamide gel electrophoresis and immunoblotted using selected primary antibodies (sources and dilutions are listed in Table S1), followed by incubation with appropriate horseradish peroxidase (HRP)-conjugated secondary antibodies (Table S1). Proteins were detected using the EZ-ECL Enhanced Chemiluminescence Detection Kit (Biological Industries, Beit Haemek, Israel). Band intensities were analyzed with densitometry using FUSION-FX software (Vilber Lourmat, Collegien, France), and the values were normalized to β-actin.
Figure 3 The D-Δ(1-18)N-Ter-Antp peptide induced autophagy and cellular senescence and altered the expression of apoptosis-related proteins. (A,B) U-87MG cells were treated with the indicated concentrations of D-Δ(1-18)N-Ter-Antp peptide for 12 h and then were subjected to immunoblotting for caspase-9, AIF, Bcl-xL, Bcl-2, and Bax and the relative expression level was quantified (B). (C,D) U-87MG cells were treated with the indicated concentrations of D-Δ(1-18)N-Ter-Antp peptide for 12 h and then subjected to immunoblotting for the autophagy markers LC3-I and LC3-II (C) and LC3-II quantification (D). (E,F) U-87MG cells were treated with the indicated concentrations of D-Δ(1-18)N-Ter-Antp peptide for 12 h and then subjected to β-gal activity (blue). Mouse embryonic fibroblast cells at passage 10 (MEF-P10) served as a positive control of senescent cells. Quantification of β-gal staining intensity (F). Data are presented as the mean ± SD, n = 3, * p < 0.05; ** p < 0.01; *** p < 0.001 versus control group. NS, non-specific. The images were captured at 40× and two folds enlargement is shown.
Figure 4 The D-Δ(1-18)N-Ter-Antp induced the altered expression of metabolism and signaling-related proteins. (A,B) U-87MG cells were treated with the indicated concentrations of D-Δ(1-18)N-Ter-Antp peptide at the indicated concentration for 12 h and then subjected to immunoblot analyses of cell lysates for VDAC1, HK-I, ATPsyn5a, and citrate synthase (CS) (A). Quantification of the immunoblot (B). (C–E) Immunoblotting of the indicated proteins c-Jun, NF-κB-p65, p53, CDK2 and IkB-a (C) and their quantitative analysis (D,E). The results were from triplicates of different biological repeats (n = 3) and are presented as the means ± SEM. * p ≤ 0.05; ** p ≤ 0.01; *** p ≤ 0.001.

[3] = immunoblot normalized to β-actin, n = 3

With “19-FTKGYGFGL-26- RQIKIWFQNRRMKWKK [D-Δ(1-18)N-Ter-Antp]” the “Increase of vinculin expression compared to untreated cells” value [1] was 4 fold, the “Autophagy, appearance of LC3-II” value ([2]; immunoblot for LC3-I and LC3-II) was “induced” and the “Decrease of expression of IκBα” value [2, 3] was 2 fold. The “Decrease of expression of cyclin-dependent kinase 2 (CDK-2)” value [2, 3] was 2 fold, the “Enhanced expression of c-Jun” value [2, 3] was 6 fold and the “Enhanced expression of nuclear factor kappa B (NF-κB p65)” value [2, 3] was 3.5 fold. The “Enhanced expression of p53” value [2, 3] was 3 fold.
